Assay results reported in PMC4342491, “Cross-talk between Two Nucleotide-signaling Pathways in Staphylococcus aureus” (The Journal of Biological Chemistry, 2015).

Tests used:
[1] = molecular target: T1, GdpP (rGdpP) (Staphylococcus aureus, UniProt Q2G2T6); assay: TLC of radiolabelled c-di-AMP hydrolysis to pApA; format: biochemical; conditions: labelled compound; 20 μM c-di-AMP, 1 μM enzyme, 50 mM Tris pH 8.5, 0.1 mM MnCl2, 20 mM KCl, room temperature, no ppGpp
T1 construct: gene SAOUHSC_00015; residues 84-655, N-terminal transmembrane helices removed
T1 sequence (Q2G2T6 84-655): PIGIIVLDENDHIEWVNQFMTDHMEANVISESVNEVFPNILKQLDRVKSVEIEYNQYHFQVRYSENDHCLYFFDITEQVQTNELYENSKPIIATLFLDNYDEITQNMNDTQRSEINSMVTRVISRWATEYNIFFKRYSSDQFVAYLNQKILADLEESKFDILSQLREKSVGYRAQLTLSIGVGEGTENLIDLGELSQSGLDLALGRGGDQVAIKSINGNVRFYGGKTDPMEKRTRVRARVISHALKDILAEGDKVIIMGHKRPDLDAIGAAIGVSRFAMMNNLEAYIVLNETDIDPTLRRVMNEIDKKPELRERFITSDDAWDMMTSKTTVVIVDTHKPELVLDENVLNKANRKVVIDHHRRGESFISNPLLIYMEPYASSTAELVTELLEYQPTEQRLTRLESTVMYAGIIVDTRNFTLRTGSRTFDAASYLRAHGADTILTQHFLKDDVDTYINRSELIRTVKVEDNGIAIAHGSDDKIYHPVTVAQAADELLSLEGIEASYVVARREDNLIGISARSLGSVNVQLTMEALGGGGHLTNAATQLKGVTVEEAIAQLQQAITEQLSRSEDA

[2] = molecular target: T1, GdpP (rGdpP); assay: TLC of […]c-di-AMP hydrolysis to pApA, dose-response fit; format: biochemical

SMILES	% pApA formation [1]	Ki [2] [µM]
Nc1ncnc2c1ncn2[C@@H]1O[C@@H]2COP(=O)(O)O[C@H]3[C@@H](O)[C@H](n4cnc5c(N)ncnc54)O[C@@H]3COP(=O)(O)O[C@H]2[C@H]1O [c-di-AMP]	rGdpP was able to efficiently hydrolyze c-di-AMP in the absence of ppGpp	
Nc1nc2c(ncn2[C@@H]2O[C@H](COP(=O)(O)OP(=O)(O)O)[C@@H](OP(=O)(O)OP(=O)(O)O)[C@H]2O)c(=O)[nH]1 [ppGpp]		130 ± 42.8
